In ChEMBL document CHEMBL4627261, “A panoramic review of IL-6: Structure, pathophysiological roles and inhibitors” (Bioorg Med Chem, 2020):

What was measured:
WEHI265.1 [1] = experiment: Antiinflammatory activity in LPS-induced mouse WEHI265.1 cells assessed as reduction in IL-6 level at 10 uM by ELISA relative to control; type: functional
WEHI265.1 [2] = experiment: Antiinflammatory activity in LPS-induced mouse WEHI265.1 cells assessed as reduction in IL-6 level by ELISA; type: functional, cell-based
Mus musculus = experiment: Antiinflammatory activity in LPS-induced mouse model assessed as reduction in IL-6 level in serum at 25 mg/kg, po relative to control; type: functional
Homo sapiens [3] = organism: Homo sapiens; experiment: Inhibition of PI3K (unknown origin) assessed as reduction in PI3K phosphorylation by cell based assay at 10 ug/ml relative to control
[4] = molecular target: RAC-alpha serine/threonine-protein kinase (Homo sapiens) (UniProt P31749); experiment: Inhibition of AKT (unknown origin) assessed as reduction in […] phosphorylation at 10 ug/ml by cell based assay relative to control
Sequence of RAC-alpha serine/threonine-protein kinase (Homo sapiens) (P31749 whole entry): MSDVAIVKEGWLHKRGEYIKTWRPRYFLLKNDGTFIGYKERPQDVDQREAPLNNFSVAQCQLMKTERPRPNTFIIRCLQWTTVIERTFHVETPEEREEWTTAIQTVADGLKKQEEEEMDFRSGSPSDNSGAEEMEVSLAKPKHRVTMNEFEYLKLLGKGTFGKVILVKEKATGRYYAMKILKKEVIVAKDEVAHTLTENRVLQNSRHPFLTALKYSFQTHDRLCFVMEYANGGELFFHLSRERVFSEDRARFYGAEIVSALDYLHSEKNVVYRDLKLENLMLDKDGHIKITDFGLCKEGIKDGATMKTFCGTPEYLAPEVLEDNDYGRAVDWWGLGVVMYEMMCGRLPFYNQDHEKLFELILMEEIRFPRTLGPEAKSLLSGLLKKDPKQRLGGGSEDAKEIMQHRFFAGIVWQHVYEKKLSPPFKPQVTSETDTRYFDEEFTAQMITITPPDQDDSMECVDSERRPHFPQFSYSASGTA

Homo sapiens [5] = organism: Homo sapiens; experiment: Inhibition of MAPK (unknown origin) assessed as reduction in […] phosphorylation by cell based assay at 10 ug/ml relative to control
RAW264.7 = experiment: Effect on IL-6 mRNA expression in mouse RAW264.7 cells at 10 ug/ml relative to control; type: functional

Structure (SMILES) | IC50 (WEHI265.1 [2]) [nM] | inhibition at 10 µM (WEHI265.1 [1]) [%] | also measured
Oc1ccc(-c2cncc(-c3ccc(O)cc3)n2)cc1 |  | 55 | 
Nc1ccccc1-c1c2n(c3c(c1=O)CCC3)CCN2 | 200 | 82 | 
Oc1ccc(-c2cccc(-c3ccc(O)cc3)c2)cc1 |  | 85 | inhibition in vivo at 25 mg/kg (Mus musculus): 88%
COC(=O)CCC(=O)Nc1ccccc1C(=O)OC |  |  | inhibition (Homo sapiens [3]): 51%; inhibition [4]: 70%; inhibition (Homo sapiens [5]): 54%; Activity (RAW264.7): 33%
Oc1ccc(-c2cncc(-c3ccc(O)cc3)c2)cc1 |  | 73 | inhibition in vivo at 25 mg/kg (Mus musculus): 71%
COc1ccccc1-c1c2n(c3c(c1=O)CCC3)CCN2 | 200 | 82 | 
O=c1c2c(n3c(c1-c1ccccc1[N+](=O)[O-])NCC3)CCC2 | 200 | 73 | 
CC(=O)Nc1ccccc1-c1c2n(c3c(c1=O)CCC3)CCN2 | 200 | 74 | 

Now from value to compound, other results behind:

IC50 (WEHI265.1 [2]) [nM] | Structure (SMILES) | inhibition at 10 µM (WEHI265.1 [1]) [%] | also measured
200 | O=c1c2c(n3c(c1-c1ccccc1Cl)NCC3)CCC2 | 90 | 
200 | O=c1c2c(n3c(c1-c1ccccc1)NCC3)CCC2 | 74 | 
200 | O=c1c2c(n3c(c1-c1ccccc1)OCC3)CCC2 | 20 | 
200 | O=c1c2c(n3c(c1-c1ccccc1)SCC3)CCC2 | 52 | 
200 | CN1CCn2c3c(c(=O)c(-c4ccccc4)c21)CCC3 | 43 | 
